Assay results: patent US9115385B2, “Methods and compositions for topoisomerase I modulated tumor suppression” (RG BIOPHARMA, LLC, priority 2006, dated 2015)

Key:
H23 cells = experiment: cell viability assay with camptothecin, H23; type: cell-based, human
Experimental: (§1) Control cells received no pretreatment. […] CK2 activator treatment was for the duration of the assay. Cell viability was scored 3 days post-start of camptothecin treatment.
(§2) Viability assays were performed 24 hours post-vector treatment by exposing cells for 24 hours to increasing doses of camptothecin (a topoisomerase I inhibitor) in triplicate in a 96-well viability assay, and assaying them for viability 5 days post-start of vector treatment (FIG. 5B). For each growth curve, cell viabilities were normalized to the viability of cells treated with vector only (no camptothecin), to enable a direct visualization of the sensitization effect.
Studies of a large panel of cell lines have shown that cell lines with overexpressed CK2 (FIGS. 11B1-B3 and 11C1-C3) display hyper serine phosphorylation of topo I (FIG. 11D) that correlates with sensitivity to camptothecin (FIG. 11A). […] Cells were plated at 2000 cells per well and allowed to attach. Triplicate wells were then treated with the indicated doses of camptothecin for 18 hours, and monitored for viability 3 days post-start of treatment. Viability is represented as a % of control, untreated, cell viability. Referring to FIGS. 11B1-B3, PKC (B1), cdk1 (B2), and CK2 (B3) levels in cancer cell lines: Cell lysates were prepared from the indicated cancer cell lines and assayed for enzymatic activities, or evaluated by Western analysis for total PKC, cdk1, or CK2 protein levels. Actin levels served as a control (same control for PKC, cdk1, and CK2). Referring to FIGS. 11C1-C3 PKC (C1), cdk1 (C2), and CK2 (C3) levels in normal cell lines, compared to H358 and H23: Cell lysates were prepared from the indicated cell lines and evaluated as before. Numbers below Western blots indicate digital reading of band intensities of PCK, cdk1, or CK2 Western blots, relative to H358. Referring to FIG. 11D, topo-I immunoprecipitation followed by topo-I Western (top row) or phosphoserine Western (bottom row). Numbers below Western blot are digital readings of ser-P band intensities relative to H358.

HT29 cells = experiment: cell viability assay with camptothecin, HT29; type: cell-based, human; conditions: viability 3 days after treatment
Source text: FIG. 7 is a series of graphs showing the correlation of serine phosphorylation, ARF/topoisomerase I complex formation and camptothecin sensitivity. FIGS. 7A-C show the relative amounts of (A) serine phosphorylation of topoisomerase I, (B) total topoisomerase I, and (C) ARF-topoisomerase I complex following topoisomerase I immunoprecipitation in the indicated cell types. FIG. 7D is a graph showing the viability of the indicated cell types 3 days after treatment with camptothecin.
Studies of a large panel of cell lines have shown that cell lines with overexpressed CK2 (FIGS. 11B1-B3 and 11C1-C3) display hyper serine phosphorylation of topo I (FIG. 11D) that correlates with sensitivity to camptothecin (FIG. 11A). […] Triplicate wells were then treated with the indicated doses of camptothecin for 18 hours, and monitored for viability 3 days post-start of treatment. […] Referring to FIGS. 11B1-B3, PKC (B1), cdk1 (B2), and CK2 (B3) levels in cancer cell lines: Cell lysates were prepared from the indicated cancer cell lines and assayed for enzymatic activities, or evaluated by Western analysis for total PKC, cdk1, or CK2 protein levels. […] Referring to FIGS. 11C1-C3 PKC (C1), cdk1 (C2), and CK2 (C3) levels in normal cell lines, compared to H358 and H23: Cell lysates were prepared from the indicated cell lines and evaluated as before. […]

Hela cells = experiment: cell viability assay with camptothecin, Hela; type: cell-based; conditions: compared with H23 and H358
Source text: FIG. 8A is a graph showing the viability of the indicated cell types 3 days after treatment with camptothecin. FIG. 8B is an electrophoretic gel of a topoisomerase I immunoprecipitation followed by an ARF and topoisomerase I Western analysis. FIG. 8C is an electrophoretic gel of a topoisomerase I immunoprecipitation and a phosphoserine Western analysis. FIG. 8D is an ARF Western analysis. […] The sensitivity of Hela cells to topoisomerase I inhibitors is also intermediate to that of […] and H23 cells.
The assay in FIG. 8A was carried out as in FIG. 7D. ARF/topoisomerase I complex formation was examined using the co-immunoprecipitation assay described for FIGS. 3A and 3C. A reduced but detectable level of ARF/topoisomerase I complex formation in Hela cells was observed, compared to H358 cells (FIG. 8B). ARF/topoisomerase I complex formation in H23 cells was undetectable (FIG. 8B), confirming previous experiments (FIG. 1C).

topoisomerase I [1] = biological target: T1, topoisomerase I (Homo sapiens, UniProt P11387); experiment: topoisomerase I plasmid relaxation assay, agent added to nuclear extracts in vitro; type: biochemical; conditions: for effect on H358 topoisomerase activity: 3, 9, 27 ng added to 0.06 μg H358 extract; for effect on H23 topoisomerase activity: 3, 9, 27 ng added to 0.6 μg H23 extract
T1 construct: endogenous in cells; host or cells: H358 and H23 cells
T1 sequence (P11387 2-765 limits assumed): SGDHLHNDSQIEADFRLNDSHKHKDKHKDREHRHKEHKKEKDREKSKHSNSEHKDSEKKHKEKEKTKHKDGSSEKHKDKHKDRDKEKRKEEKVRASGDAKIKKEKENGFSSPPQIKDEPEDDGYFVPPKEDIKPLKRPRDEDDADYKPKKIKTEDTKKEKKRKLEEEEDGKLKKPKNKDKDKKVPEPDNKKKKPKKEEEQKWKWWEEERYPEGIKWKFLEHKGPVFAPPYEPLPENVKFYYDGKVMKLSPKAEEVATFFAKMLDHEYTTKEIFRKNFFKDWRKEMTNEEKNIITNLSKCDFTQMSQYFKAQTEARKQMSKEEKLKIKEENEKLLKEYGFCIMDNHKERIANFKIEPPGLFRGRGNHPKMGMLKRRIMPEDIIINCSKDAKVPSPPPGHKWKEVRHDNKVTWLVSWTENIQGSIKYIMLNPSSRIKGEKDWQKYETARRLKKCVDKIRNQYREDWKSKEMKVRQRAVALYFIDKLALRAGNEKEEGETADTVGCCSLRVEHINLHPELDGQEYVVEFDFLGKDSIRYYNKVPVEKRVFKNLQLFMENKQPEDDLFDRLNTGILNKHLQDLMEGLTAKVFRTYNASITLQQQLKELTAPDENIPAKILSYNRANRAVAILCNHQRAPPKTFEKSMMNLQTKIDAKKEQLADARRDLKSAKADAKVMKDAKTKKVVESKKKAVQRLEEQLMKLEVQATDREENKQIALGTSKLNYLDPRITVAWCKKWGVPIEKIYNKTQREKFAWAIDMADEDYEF
Experimental: Similar assays were carried out using the amount of each respective nuclear extract that produced a 50% conversion of supercoiled to relaxed form (0.06 and 0.6 μg extract protein per reaction for H358 and H23, respectively), and added increasing amounts of purified thioredoxin-ARF (3, 9, 27 ng).
Topoisomerase I Assays: Assays were carried out using the Topoisomerase I Assay Kit (Topogen, Florida), according to the instructions provided with the kit and using the high salt nuclear extracts prepared as described above. Briefly, 0.125 μg supercoiled plasmid DNA was incubated with 0-1.3 μg of nuclear extract for 30 minutes at 37° C. The reaction was stopped by adding stop loading dye supplied in the kit and electrophoresed on a 1% agarose/TAE (10 mM TRIS-acetate/1 mM EDTA) gel until the dye front had reached the bottom of the gel. The gel was then stained for 20 minutes in 0.5 μg/mL ethidium bromide, destained in deionized water for 30 minutes, and electrophoresed for an additional hour to enhance band visibility. The gel was photographed and band intensities were analyzed digitally using a Kodak digital camera and analysis software. Some assays were carried out with alkaline phosphatase-treated extracts, prepared as described below, or in the presence of ARF or ARF1β thioredoxin fusion proteins (3, 9, 27 ng), prepared as described above (see pull-down assays).

topoisomerase I [2] = biological target: T1, topoisomerase I; experiment: phosphoserine Western of topoisomerase I after in vitro enzyme treatment; type: biochemical
Source text: (§3) The dephosphorylated topoisomerase I from H358 cells could no longer be activated by addition of increasing amounts of ARF fusion protein (FIG. 3B, lanes 7-9).

[3] = system: ARF/topoisomerase I complex; experiment: ARF binding / co-immunoprecipitation of topoisomerase I after in vitro enzyme treatment; design: species or system human
Source text: as §3

H358 cells = experiment: cell viability assay with camptothecin, H358; type: cell-based, human; conditions: viability 5 days post-start of vector treatment
Experimental: as §1, §2
Studies of a large panel of cell lines have shown that cell lines with overexpressed CK2 (FIGS. 11B1-B3 and 11C1-C3) display hyper serine phosphorylation of topo I (FIG. 11D) that correlates with sensitivity to camptothecin (FIG. 11A). […] Triplicate wells were then treated with the indicated doses of camptothecin for 18 hours, and monitored for viability 3 days post-start of treatment. […] Referring to FIGS. 11B1-B3, PKC (B1), cdk1 (B2), and CK2 (B3) levels in cancer cell lines: Cell lysates were prepared from the indicated cancer cell lines and assayed for enzymatic activities, or evaluated by Western analysis for total PKC, cdk1, or CK2 protein levels. […] Numbers below Western blot are digital readings of ser-P band intensities relative to H358.

ARF = experiment: Western analysis of ARF protein levels in treated H358 cells; type: cell-based, human; conditions: 72 hours post-siRNA
Source text: FIG. 5B is a series of graphs showing H358 and PC-3 cell viabilities assayed 5 days post-vector treatment (adenoviral vector, moi 20 pfu/cell, or siRNA), and 4 days post treatment with increasing doses of camptothecin. Viability is expressed as a percent of no-camptothecin control for each vector or siRNA treatment. Results represent average of triplicate wells, with standard deviations indicated. Treatments: Adp14 (ARF full length ▪); Ad1β (ARF N-term ◯); siRNA control (▾); no vector (●); siRNA exon 2 (∇). […] Digital analyses of ARF levels are shown below ARF lanes. (lower panel) H358 cell viability assay following the indicated treatments. Viability was measured 3 days post-start of camptothecin treatment.
Adenoviral vectors were used to achieve ectopic overexpression of full-length ARF (Adp14) or ARF-N-terminal domain (Ad1β), and RNA interference to down-regulate endogenous expression of ARF. As shown by the Western analysis of H358 cells in FIG. 5A, ARF levels increased by some 3-fold, as determined by digital analysis of band intensities, by 48 hours post-treatment with Adp14 (moi, 20 pfu/cell, FIG. 5A, lane 1), relative to Ad1β-treated cells (FIG. 5A, lane 2) or untreated cells (FIG. 5A, lane 4). […]

[4] = purified recombinant human topoisomerase I

For `CC[C@@]1(O)C(=O)OCc2c1cc1n(c2=O)Cc2cc3ccccc3nc2-1` [camptothecin], the response to camptothecin (H23 cells) was “greatly reduced response”, the “sensitivity to camptothecin compared with H358 and PC-3” value (H23 cells; viability 3 days after treatment) was “more resistant” and the “sensitivity to camptothecin compared with H358 and PC-3” value (HT29 cells) was “more resistant”. The sensitivity to camptothecin (Hela cells) was “intermediate to that of H23 and H358”.

In the case of “Thioredoxin-ARF: purified recombinant human ARF-thioredoxin fusion protein, full length”, the “effect on H358 topoisomerase activity” value (topoisomerase I [1]) is reported as “enhanced the activity of H358 topoisomerase in a dose-dependent manner” and the “effect on H23 topoisomerase activity” value (topoisomerase I [1]) is reported as “no effect”.

alkaline phosphatase was tested, and the “topoisomerase I activity in vitro” value (topoisomerase I [1]; H358 and H23 nuclear extracts treated with the enzyme) was “abolished their topoisomerase I activity”, the “topoisomerase I serine phosphorylation” value (topoisomerase I [2]; H358 and H23 nuclear extracts) was “eliminated serine phosphorylation” and the “serine phosphorylation of purified recombinant human topoisomerase I” value (topoisomerase I [2]; [4]) was “abolished serine phosphorylation”. The “co-immunoprecipitation of topoisomerase I with ARF / complex formation” value ([3]; nuclear extracts) was “failed to co-immunoprecipitate” and the “binding of recombinant ARF fusion protein by purified recombinant human topoisomerase I” value [3, 4] was “abolished its ability to bind recombinant ARF fusion protein”.

“siRNA to exon 1β: siRNA to the exon 1β region of ARF (SEQ ID NO: 4 and 5) (chain 1 GGGUUUUCGUGGUUCACAUTT; chain 2 AUGUGAACCACGAAAACCCTC; chemistry not given here)” was tested, and the “sensitivity to camptothecin after exon 1β siRNA with or without Adp14” value (H358 cells) was “decreased sensitivity to camptothecin” and the “ARF protein level relative to untreated cells” value (ARF) was “about 0.25”.

B1: thioredoxin ARF-N-terminus: thioredoxin fusion of the N-terminal 64 amino acid residues of ARF, does not bind topoisomerase I (protein, UniProt Q8N726 1-64, looked up, fragment)
chain: MVRRFLVTLRIRRACGPPRVRVFVVHIPRLTGEWAAPGAPAAVALVLMLLRSQRLGQQPLPRRP
modifications: thioredoxin fusion
B1 was tested, and the “effect on H358 topoisomerase activity” value (topoisomerase I [1]) was “Neither H358 not H23 topoisomerase activities responded” and the “effect on H23 topoisomerase activity” value (topoisomerase I [1]) was “Neither H358 not H23 topoisomerase activities responded”.
